The results in this text go back to patent publication US20250313563A1, “GLYCOGEN SYNTHASE KINASE 3 INHIBITORS AND USES THEREOF” (The Broad Institute, Inc., priority 2022, published 2025).

Like-named read-outs stand apart in the source and are kept apart here. Where only a bound is given, the exact number is not on record here.

Assay [1] concerns the target GSK3α (GST-full length GSK3α) (Homo sapiens (Human), UniProt P49840). The assay is described as follows: GSK3α TR-FRET kinase assay. The format is biochemical. The method, boiled down:
(§1)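 Readout: anti-pSer641 Tb antibody/streptavidin-d2 signal after 60 min, expressed as 665/615 ratio and fitted versus log concentration for IC50. Enzyme: 1 nM GST-GSK3 (α or β), compound-preincubated 30 min. Conditions: pH 7.5 Tris buffer with MgCl2, DTT, BSA; ATP at 4 or 2 μM, or 1 mM; 100 min.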

Assay [2] deals with GSK3b (GST-full length GSK3b) (Homo sapiens (Human), UniProt P49841). As to the kind of experiment: GSK3b TR-FRET kinase assay. The format is biochemical. The method, boiled down:
as §1

Where [3] appears, read: 1 nM GSK3α, 4 μM ATP, 30 minute preincubation, Table 16, read-out: GSK3-A TR-FRET BIOCHEMICAL (TR-FRET).
Where [4] appears, read: 1 nM GSK3b, 2 μM ATP, 30 minute preincubation, Table 16, read-out: GSK3-B TR-FRET BIOCHEMICAL (TR-FRET).
The mark [5] stands for this setting: 1 nM GSK3α, 4 μM ATP, 30 minute preincubation, read-out: GSK3-A TR-FRET BIOCHEMICAL (TR-FRET), IC50.
[6] abbreviates: 1 nM GSK3b, 2 μM ATP, 30 minute preincubation, read-out: GSK3-B TR-FRET BIOCHEMICAL (TR-FRET), IC50.
Setting [7] is: read-out: GSK3-A (TR-FRET 1 mM ATP), GMean, IC50, 1 mM ATP, geometric mean.
[8] abbreviates: read-out: GSK3-B (TR-FRET 1 mM ATP), GMean, IC50, 1 mM ATP, geometric mean.
Where [9] appears, read: 1 nM GSK3α, 4 μM ATP, 30 minute preincubation, Table 16, read-out: GSK3-A TR-FRET BIOCHEMICAL (TR-FRET), IC50.
[10] abbreviates: 1 nM GSK3b, 2 μM ATP, 30 minute preincubation, Table 16, read-out: GSK3-B TR-FRET BIOCHEMICAL (TR-FRET), IC50.
Setting [11] is: GSK3-A (TR-FRET 1 mM ATP), GMean, IC50, 1 mM ATP, geometric mean.
[12] abbreviates: GSK3-B (TR-FRET 1 mM ATP), GMean, IC50, 1 mM ATP, geometric mean.

Chain of GSK3α (GST-full length GSK3α) (P49840 whole entry): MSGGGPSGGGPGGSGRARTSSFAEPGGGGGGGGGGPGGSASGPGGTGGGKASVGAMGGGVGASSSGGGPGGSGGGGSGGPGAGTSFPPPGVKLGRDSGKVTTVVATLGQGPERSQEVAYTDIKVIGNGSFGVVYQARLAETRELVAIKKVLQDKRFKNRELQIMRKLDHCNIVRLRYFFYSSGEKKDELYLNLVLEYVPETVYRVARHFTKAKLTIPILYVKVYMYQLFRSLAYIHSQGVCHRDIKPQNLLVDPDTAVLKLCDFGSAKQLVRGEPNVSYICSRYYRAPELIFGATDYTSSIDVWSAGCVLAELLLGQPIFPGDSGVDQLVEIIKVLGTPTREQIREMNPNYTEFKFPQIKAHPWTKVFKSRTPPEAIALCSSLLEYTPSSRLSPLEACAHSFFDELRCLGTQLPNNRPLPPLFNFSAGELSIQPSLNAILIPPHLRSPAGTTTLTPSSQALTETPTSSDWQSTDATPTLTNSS
Chain of GSK3b (GST-full length GSK3b) (P49841 whole entry): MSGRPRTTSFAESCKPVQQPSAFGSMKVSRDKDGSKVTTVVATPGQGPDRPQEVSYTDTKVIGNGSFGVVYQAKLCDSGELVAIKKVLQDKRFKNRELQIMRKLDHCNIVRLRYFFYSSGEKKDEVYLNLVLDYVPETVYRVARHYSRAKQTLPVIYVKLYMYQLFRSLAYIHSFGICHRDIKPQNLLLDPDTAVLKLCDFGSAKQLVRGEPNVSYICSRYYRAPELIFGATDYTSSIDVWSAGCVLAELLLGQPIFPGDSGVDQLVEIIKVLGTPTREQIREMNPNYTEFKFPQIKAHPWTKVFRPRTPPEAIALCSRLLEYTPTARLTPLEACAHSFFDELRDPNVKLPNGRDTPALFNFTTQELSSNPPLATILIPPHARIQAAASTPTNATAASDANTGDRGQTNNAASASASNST

`CCC1(c2cccc(Nc3ncccn3)c2)C2=C(CC(C)(C)CC2=O)Nc2n[nH]cc21` (stereo not drawn) [Compound 945958]: the results for the IC50 in assay [1] (setting [3]) and in assay [2] (setting [4]) were 1000 to 5000 nM and over 5000 nM, respectively.

As to `CCC1(c2cccc(-c3ccnc(CCO)c3)c2)C2=C(CC(C)(C)CC2=O)Nc2n[nH]cc21` (stereo not drawn) [Compound 945992], the IC50 was at most 100 nM in assay [1] (setting [3]) and 100 to 1000 nM in assay [2] (setting [4]).

For `CCC1(c2cccc(-c3ccnc(C)c3C)c2)C2=C(CC(C)(C)NC2=O)Nc2n[nH]cc21` (stereo not drawn) [Compound 945994], the IC50 in assay [1] (setting [5]) was at most 100 nM; in assay [2] (setting [6]), 100 to 1000 nM.

Consider `CC[C@]1(c2cccc(-c3cc(C)ncc3OC)c2)C2=C(CC(C)(C)CC2=O)Nc2n[nH]cc21` [Compound 945995], for which the IC50 was at most 100 nM in assay [1] (setting [3]), 100 to 1000 nM in assay [1] (setting [7]), at most 100 nM in assay [2] (setting [4]) and 1000 to 5000 nM in assay [2] (setting [8]).

With `CC[C@]1(c2cccc(-c3ccnc(C)c3OC)c2)C2=C(CC(C)(C)CC2=O)Nc2n[nH]cc21` [Compound 945997], the IC50 was at most 100 nM in assay [1] (setting [3]), 100 to 1000 nM in assay [1] (setting [7]), at most 100 nM in assay [2] (setting [4]) and 1000 to 5000 nM in assay [2] (setting [8]).

For the compound `CCC1(c2cccc(S(=O)(=O)C3COC3)c2)C2=C(CC(C)(C)CC2=O)Nc2n[nH]cc21` (stereo not drawn) [Compound 945998], the IC50 in assay [1] (setting [3]) and in assay [2] (setting [4]) was at most 100 nM throughout.

With `CC[C@]1(c2cccc(S(=O)(=O)C3CC3)c2)C2=C(CC(C)(C)NC2=O)Nc2n[nH]cc21` [Compound 945999], the IC50 in assay [1] (setting [5]) and in assay [2] (setting [6]) was at most 100 nM in each case.

In the case of `CCC1(c2cccc(S(=O)(=O)C3COC3)c2)C2=C(CC(C)(C)CC2=O)Nc2n[nH]cc21` (stereo not drawn) [Compound 946003], the IC50 was 100 to 1000 nM in assay [1] (setting [3]) and over 5000 nM in assay [2] (setting [4]).

Turning to `CCC1(c2cccc(S(=O)(=O)C3CC3)c2)C2=C(CC(C)(C)NC2=O)Nc2n[nH]cc21` (stereo not drawn) [Compound 946004], the IC50 in assay [1] (setting [5]) was 100 to 1000 nM; in assay [2] (setting [6]), over 5000 nM.

Take `CC[C@@]1(c2ccccc2)C2=C(CC(C)(C)C(O)C2=O)Nc2n[nH]cc21` (stereo partly drawn) [Compound 946056]: the IC50 is 100 to 1000 nM in assay [1] (setting [3]) and over 5000 nM in assay [2] (setting [4]).

Regarding `CC1(C)CC(=O)C2=C(C1)Nc1n[nH]cc1[C@@]21CO[C@H](c2ccccc2)C1` [Compound 946072], the IC50 in assay [1] (setting [3]) is at most 100 nM; in assay [2] (setting [4]), 100 to 1000 nM.

`CC1(C)CC(=O)C2=C(C1)Nc1n[nH]cc1[C@@]21CO[C@@H](c2ccccc2)C1` [Compound 946073]: the IC50 in assay [1] (setting [3]) is at most 100 nM; in assay [2] (setting [4]), 100 to 1000 nM.

As for `CC1(C)CC(=O)C2=C(C1)Nc1n[nH]cc1[C@]21CCC[C@H](C#N)C1` [Compound 946078], the IC50 is 1000 to 5000 nM in assay [1] (setting [9]) and over 5000 nM in assay [2] (setting [10]).

`CC1(C)CC(=O)C2=C(C1)Nc1n[nH]cc1[C@]21CCC[C@@H](C#N)C1` [Compound 946080]: the IC50 in assay [1] (setting [9]) and in assay [2] (setting [10]) was 1000 to 5000 nM each time.

Regarding `CCn1nccc1-c1cccc(C2(CC)C3=C(CC(C)(C)CC3=O)Nc3n[nH]cc32)c1` (stereo not drawn) [Compound 946090], the IC50 in assay [1] (setting [3]) is 100 to 1000 nM; in assay [2] (setting [4]), over 5000 nM.

Regarding `CCC1(c2cccc(-c3ccnn3C(C)C)c2)C2=C(CC(C)(C)CC2=O)Nc2n[nH]cc21` (stereo not drawn) [Compound 946092], the values for the IC50 in assay [1] (setting [3]) and in assay [2] (setting [4]) were 1000 to 5000 nM and over 5000 nM, respectively.

With `CCCn1nccc1-c1cccc(C2(CC)C3=C(CC(C)(C)CC3=O)Nc3n[nH]cc32)c1` (stereo not drawn) [Compound 946093], the IC50 in assay [1] (setting [3]) was at most 100 nM; in assay [1] (setting [7]), at most 100 nM; in assay [2] (setting [4]) it was at most 100 nM; in assay [2] (setting [8]) it was 100 to 1000 nM.

Take `CCCn1nccc1-c1cccc(C2(CC)C3=C(CC(C)(C)CC3=O)Nc3n[nH]cc32)c1` (stereo not drawn) [Compound 946094]: the IC50 lay in the range of 100 to 1000 nM in assay [1] (setting [3]) and 1000 to 5000 nM in assay [2] (setting [4]).

Turning to `CCC1(c2cccc(-c3ccnn3CCC(C)C)c2)C2=C(CC(C)(C)CC2=O)Nc2n[nH]cc21` (stereo not drawn) [Compound 946095], the IC50 in assay [1] (setting [3]) and in assay [2] (setting [4]) was at most 100 nM each time.

For the compound `CCC1(c2cccc(-c3ccnn3CCC(C)C)c2)C2=C(CC(C)(C)CC2=O)Nc2n[nH]cc21` (stereo not drawn) [Compound 946096], the IC50 is 100 to 1000 nM in assay [1] (setting [3]) and over 5000 nM in assay [2] (setting [4]).

Take `CCC1(c2cccc(-c3cc(C)nn3C)c2)C2=C(CC(C)(C)CC2=O)Nc2n[nH]cc21` (stereo not drawn) [Compound 946097]: the values for the IC50 in assay [1] (setting [3]) and in assay [2] (setting [4]) were at most 100 nM and 100 to 1000 nM, respectively.

Turning to `CCC1(c2cccc(-c3ccnc(C)c3)c2)C2=C(Nc3n[nH]cc31)C(F)C(C)(C)CC2=O` (stereo not drawn) [Compound 946101], the values for the IC50 in assay [1] (setting [3]) and in assay [2] (setting [4]) were 1000 to 5000 nM and over 5000 nM, respectively.

In the case of `CCC1(c2cccc(-c3ccnc(C)c3)c2)C2=C(Nc3n[nH]cc31)C(F)C(C)(C)CC2=O` (stereo not drawn) [Compound 946102], the IC50 in assay [1] (setting [3]) is 1000 to 5000 nM; in assay [2] (setting [4]) it was over 5000 nM.

As for `CCC1(c2cccc(-c3ccnc(C)c3)c2)C2=C(Nc3n[nH]cc31)C(F)C(C)(C)CC2=O` (stereo not drawn) [Compound 946103], the IC50 in assay [1] (setting [3]) is 100 to 1000 nM; in assay [1] (setting [7]) it was over 5000 nM; in assay [2] (setting [4]), 1000 to 5000 nM; in assay [2] (setting [8]) it was over 5000 nM.

As to `CCC1(c2cccc(-c3ccnc(C)c3)c2)C2=C(Nc3n[nH]cc31)C(F)C(C)(C)CC2=O` (stereo not drawn) [Compound 946104], the IC50 in assay [1] (setting [3]) is at most 100 nM; in assay [1] (setting [7]), 100 to 1000 nM; in assay [2] (setting [4]), 100 to 1000 nM; in assay [2] (setting [8]) it was over 5000 nM.

Consider `Cc1ccc(S(=O)(=O)N2CCC3(CC2)C2=C(CC(C)(C)CC2=O)Nc2n[nH]cc23)cc1Cl` [Compound 947241], for which the IC50 in assay [1] (setting [3]) and in assay [2] (setting [4]) was at most 100 nM throughout.

Regarding `CC1(C)CC(=O)C2=C(C1)Nc1n[nH]cc1C21CCN(S(=O)(=O)c2cccc(OC(F)F)c2)CC1` [Compound 947242], the IC50 was at most 100 nM in assay [1] (setting [3]), at most 100 nM in assay [1] (setting [11]), at most 100 nM in assay [2] (setting [4]) and 100 to 1000 nM in assay [2] (setting [12]).

With `CC1(C)CC(=O)C2=C(C1)Nc1n[nH]cc1C21CCN(S(=O)(=O)c2cccc(Cl)c2)CC1` [Compound 947243], the IC50 is at most 100 nM in assay [1] (setting [3]), 100 to 1000 nM in assay [1] (setting [11]), at most 100 nM in assay [2] (setting [4]) and 1000 to 5000 nM in assay [2] (setting [12]).

`CC1(C)CC(=O)C2=C(C1)Nc1n[nH]cc1C21CCN(S(=O)(=O)c2cccc(C(F)(F)F)c2)CC1` [Compound 947244]: the IC50 in assay [1] (setting [3]) and in assay [2] (setting [4]) was at most 100 nM each time.

Consider `COc1ccc(C)c(S(=O)(=O)N2CCC3(CC2)C2=C(CC(C)(C)CC2=O)Nc2n[nH]cc23)c1` [Compound 947245], for which the IC50 in assay [1] (setting [3]) was at most 100 nM; in assay [2] (setting [4]), 100 to 1000 nM.

Take `CC1(C)CC(=O)C2=C(C1)Nc1n[nH]cc1C21CCN(S(=O)(=O)c2ccc(OC(F)F)cc2)CC1` [Compound 947246]: the IC50 is at most 100 nM in assay [1] (setting [3]), at most 100 nM in assay [1] (setting [11]), at most 100 nM in assay [2] (setting [4]) and 100 to 1000 nM in assay [2] (setting [12]).

Turning to `CN(C)C(=O)c1cccc(S(=O)(=O)N2CCC3(CC2)C2=C(CC(C)(C)CC2=O)Nc2n[nH]cc23)c1` [Compound 947247], the IC50 in assay [1] (setting [3]) and in assay [2] (setting [4]) was at most 100 nM each time.

As to `CC1(C)CC(=O)C2=C(C1)Nc1n[nH]cc1C21CCN(S(=O)(=O)c2ccc(C(F)F)cc2)CC1` [Compound 947248], the IC50 in assay [1] (setting [3]) and in assay [2] (setting [4]) was at most 100 nM throughout.

Turning to `CC1(C)CC(=O)C2=C(C1)Nc1n[nH]cc1C21CCN(S(=O)(=O)c2cccc(Cl)c2Cl)CC1` [Compound 947249], the IC50 in assay [1] (setting [3]) and in assay [2] (setting [4]) was at most 100 nM throughout.
